Data as given in patent US20240335445A1, “Compounds and Compositions for Treating Fibrosis” (YALE UNIVERSITY, priority 2017, published 2024).

Tests used:
Format in all cases: biochemical
MKP5 [1] = biological target: T1, MKP5 (Homo sapiens, UniProt Q9Y6W6); assay: MKP-5 Malachite Green phosphate assay with dual phosphorylated peptide pTpY; settings: for inhibition at 12.5 µM: read-out: % inhibition of MKP-5
T1 sequence (Q9Y6W6 1-482): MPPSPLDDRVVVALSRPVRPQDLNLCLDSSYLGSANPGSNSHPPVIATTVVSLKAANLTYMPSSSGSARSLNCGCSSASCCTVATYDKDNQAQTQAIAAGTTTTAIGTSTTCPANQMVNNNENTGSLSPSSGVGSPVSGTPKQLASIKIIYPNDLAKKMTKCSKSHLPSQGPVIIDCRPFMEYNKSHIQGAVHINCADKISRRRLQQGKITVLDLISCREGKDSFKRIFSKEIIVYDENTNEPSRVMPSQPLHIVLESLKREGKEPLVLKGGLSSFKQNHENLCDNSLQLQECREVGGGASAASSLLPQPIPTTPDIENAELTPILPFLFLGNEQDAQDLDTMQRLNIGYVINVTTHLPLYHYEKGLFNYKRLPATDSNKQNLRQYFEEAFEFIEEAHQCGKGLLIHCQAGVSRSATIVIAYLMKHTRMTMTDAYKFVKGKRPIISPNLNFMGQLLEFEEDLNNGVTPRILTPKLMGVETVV
Source text: In a non-limiting example, the assay comprises contacting a peptide comprising the sequence pThr-Gly-pTyr, the polypeptide comprising and/or consisting of the catalytic domain of MKP-5 (such as but not limited to residues 305-482 of SEQ ID NO:4), or an active fragment thereof, and the test compound. If the test compound is a MKP-5 inhibitor, it will inhibit the dephosphorylation of the peptide comprising the sequence pThr-Gly-pTyr. If the test compound is not a MKP-5 inhibitor, it will not inhibit the dephosphorylation of the peptide comprising the sequence pThr-Gly-pTyr. Dephosphorylation of that peptide can be evaluated qualitatively and/or quantitatively using any methods known in the art, such as but not limited to a Malachite Green Phosphate Assay. This assay provides a fast, reproducible, colorimetric method for measuring inorganic free phosphate in aqueous solutions. The assay method is based on the formation of a complex between malachite green molybdate and free orthophosphate that absorbs at 620-640 nm. This assay is a reliable and suitable means of detecting and quantifying minimal amounts of inorganic free phosphate and is amenable to high-throughput screening applications.
Compounds from the pilot collection consisting of Microsource GenPlus, Microsource Natural Product, NIH Clinical collections, ChemBridge DIVERSet, ChemBridge MicroFormats, Maybridge Diversity, and ChemBridge Amines and Alcohols were screened. Assay conditions were 1.5 μM MKP-5 and 25 μM dual phosphorylated peptide DDE (Nle) (pT) G (pY) VATR (10 μL total volume), incubated for 30 minutes at 37° C. followed by addition of 40 μL Malachite Green reagent. Z′ values are ˜0.7-0.8. Malachite green reagent was made by combining 30 mL 0.045% Malachite Green (Sigma #M-9636) with 20 mL 4.2% ammonium molybdate in 4 M HCl, shaking for at least 30 mins and adding 0.01% Tween 20.

MKP5 [2] = biological target: T1, MKP5; assay: MKP5 EZReader assay with fluorescent mono-phosphorylated peptides
MKP5 [3] = biological target: T1, MKP5; assay: MKP5 pNPP assay
MKP5 [4] = biological target: T1, MKP5; assay: MKP-5 inhibition, assay not specified; settings: read-out: IC50 against MKP-5
[5] = Kd (M) MKP5 EZREader fluor pT_Y, substrate fluor pT_Y (SEQ ID NO: 2)
[6] = Kd (M) MKP5 EZReader fluor_TpY, substrate fluor_TpY (SEQ ID NO: 1)

SMILES | inhibition at 12.5 µM (MKP5 [1]) | Kd (MKP5 [2]; [5]) | Kd (MKP5 [2]; [6]) | Kd (MKP5 [1]) | Kd (MKP5 [3]) | IC50 (MKP5 [4])
CC(C)(C)C(=O)CSc1ncc2c(n1)-c1ccsc1CC2 [YU252252] | 37% |  |  |  |  | 
CC(C)(C)C(=O)CSc1ncc2cnc3ccccc3c2n1 [YU241658] | 15% |  |  |  |  | 
CC(=O)N1Cc2cnc(SCC(=O)C(C)(C)C)nc2-c2ccccc21 [YU241659] | 12% |  |  |  |  | 
O=C(O)c1ccc(C2Nc3c(-c4ccccc4)cccc3C3C=CCC32)cc1 (centres unmarked) [YU119284] |  | > 0.0002 M | > 0.0002 M | > 100 µM | > 200 µM | 
CSc1scc2c1-c1nc(SCC(=O)C(C)(C)C)ncc1CC2 [YU032149, 3,3-dimethyl-1-((9-(methylthio)-5,6-dihydrothieno[3,4-h]quinazolin-2-yl)thio)butan-2-one] |  | 1.13e-05 M | 1.75e-05 M | 6.25 µM | 4.23 µM | ~12 µM
O=c1cc2oc3cc(O)c(O)cc3c(-c3ccc([N+](=O)[O-])o3)c-2cc1O [YU109017] |  | 1.56e-05 M | 1.03e-05 M | > 100 µM | > 100 µM | 
Cc1ccc(C)n1-c1ccc(C(=O)O)c(O)c1 [YU129641] |  | 1.41e-05 M | 1.04e-05 M | > 100 µM | > 200 µM | 
